# Laboratory results as given in US11866394B2, “Prodrugs of hydroxamate-based GCPII inhibitors” (The Johns Hopkins University, priority 2016, dated 2024).
# Entries after “also recorded” stand apart in the source; their conditions may differ.
# Key:
# [1] = In vitro metabolic stability in mouse plasma; assay type: in vitro ADME; conditions: 37° C.
# Procedure: (§1) For metabolic stability, plasma (mouse, and human) and liver microsomes (mouse and human) were used. For stability, prodrugs (10 μM) were spiked in each matrix and incubated in an orbital shaker at 37° C. At predetermined times (0, 30 and 60 min), 100 μL aliquots of the mixture in triplicate were removed and the reaction quenched by addition of three times the volume of ice cold acetonitrile spiked with the internal standard (losartan 5 μM). The samples were vortexed for 30 s and centrifuged 12000 g for 10 min. 50 μL supernatant diluted with 50 μL water was transferred to a 250 μL polypropylene vial sealed with a Teflon cap. Prodrug disappearance was monitored over time using a liquid chromatography and tandem mass spectrometry (LC/MS/MS) method as described below.
# (§2) For LC/MS/MS, prodrugs were separated with Thermo Scientific Accela UPLC system coupled to Accela open autosampler on an Agilent C18 (100×2.1 mm id) UPLC column. The autosampler was temperature controlled and operating at 10° C. […] The column effluent was monitored using TSQ Vantage triple-quadrupole mass spectrometric detector, equipped with an electrospray probe set in the positive ionization mode. […]
# (§3) For quantification of compound remaining, disappearance of prodrugs was measured from ratio of peak areas of analyte to IS. Percentage remaining was calculated in the following manner: […]
# [2] = test system: rat chronic constriction injury (CCI) model of neuropathic pain; experiment: Chronic constrictive injury (CCI) model of neuropathic pain, thermal hyperalgesia; assay type: in vivo; conditions: 1 mg/kg subcutaneous dose (dose equivalent of 50)
# [3] = test system: rat chronic constriction injury (CCI) model of neuropathic pain; experiment: as above; assay type: in vivo; conditions: for antinociceptive effect on thermal hyperalgesia, ligated side: oral daily, 3 mg/kg dose equivalent of 1 (50), 4.6 mg/kg/day for 12
# Description: All experimental protocols were approved by the Institutional Animal Care and Use Committee at Johns Hopkins University (Baltimore, MD) and adhered to all of the applicable institutional and governmental guidelines for the humane treatment of laboratory animals. Male Sprague-Dawley rats (200-250 g; n=10-15 per group) were subjected to peripheral neuropathy injury by constriction of the sciatic nerve performed according to methods described previously. (Novakova, et al., 2016; Bennett, et al., 1988; Attal, et al., 1990) In brief, the common sciatic nerve was exposed and 4 ligatures (4.0 chromic gut) tied loosely around it with 1 mm spacing. Wound clips were used to close wounds and animals were returned to home cages for recovery. Hyperalgesia testing was initiated 10 days post-surgery. Pain sensitivity was assessed by determining withdrawal latencies in response to a constant thermal stimulus directed to the plantar surface of the hind paw using a Basile Plantar apparatus (Ugo Basile, Vaarese, Italy) according to the method described by Hargreaves et al. (Hargreaves, et al., 1988) Apparatus was calibrated so that normal rats respond to the stimulus within 15 sec of application. Withdrawal latency (i.e., the time taken for the rat to withdraw its paw from the heat source) was measured to the nearest 0.1 sec. The “difference in score” was calculated by subtracting the average latency of the paw on the non-ligated versus ligated side. Each animal was tested during two experimental sessions per week, with three days allowed to elapse between test sessions. Test agents, prodrug 12 (3 mg/kg equivalent of 1), or gabapentin (50 mg/kg and 100 mg/kg po) as a positive control were dosed daily throughout the study via oral gavage and one hour before testing on experimental days. Statistical analysis with students t-test was used to determine differences between control and treatment group.
# [4] = Subcutaneous plasma and sciatic nerve pharmacokinetic studies in mice; assay type: in vivo; conditions: 10 mg/kg equivalent s.q., 10-120 min post dose
# Procedure: Bioanalysis of parent and intact prodrug in plasma and tissues: Prior to extraction, frozen samples were thawed on ice. For plasma, 50 μL of the sample was transferred into siliconized microcentrifuge tubes. For sciatic nerves, the samples were weighed in a 1.7 mL tubes and homogenized in 5× the volume of methanol. The calibration curves were prepared using naïve plasma and sciatic nerves in a concentration range of 50-10000 pmol/g or pmol/mL. Sample preparation involved a single liquid extraction by addition of 300 μL of methanol with internal standard (losartan 200 nM in methanol), followed by vortexing for 30 s and then centrifugation at 10,000×g for 10 min. Supernatant (about 250 μL) was transferred and evaporated to dryness at 40° C. under a gentle stream of nitrogen. The residue was reconstituted with 50 μL of 30% acetonitrile and analysed by LC/MS/MS.
# Chromatographic analysis was performed using an Accela™ ultra high-performance system consisting of an analytical pump, and an autosampler coupled with TSQ Vantage mass spectrometer (Thermo Fisher Scientific Inc., Waltham, MA). […] The mobile phase used was composed of 0.1% formic acid in acetonitrile and 0.1% formic acid in H2O with gradient elution, starting with 10% (organic) linearly increasing to 99% up to 2.5 min, maintaining at 99% (2.5-3.5 min) and reequlibrating to 10% by 4.5 min. The total run time for each analyte was 4.5 min. The mass transitions (M−H)− used for Compound 50 were 280.077>175.168, 203.156; and for losartan were 420.895>127.040, 179.108.
# [5] = In vitro metabolic stability in human plasma; assay type: in vitro ADME; conditions: 37° C.
# Procedure: as §1, §2, §3
# [6] = In vitro plasma metabolite identification studies; assay type: in vitro ADME; conditions: 10 μM, 37° C., 60 min incubation
# Procedure: Plasma stability studies were conducted in mouse plasma as previously described. (Majer, et al., 2016) Compound 1 and prodrugs (12, 23 and 30) (10 μM) were spiked in plasma and incubated in an orbital shaker at 37° C. At zero and 60 min post incubation, 100 μL aliquots of the mixture in triplicate were removed and the reaction quenched by addition of two times the volume of ice cold acetonitrile spiked with the internal standard (losartan 5 μM). The samples were vortexed for 30 s and centrifuged at 12000 g for 10 min. Supernatant (50 μL) was diluted with 50 μL water and transferred to a 250 μL polypropylene vial sealed with a Teflon cap. Prodrug disappearance and metabolite identification were analyzed over time using an Agilent 1260 HPLC coupled to a ESITOF Agilent 6530 with Agilent Jet Stream Technology (Agilent Technologies, Santa Clara, CA). Samples were separated on a Waters 1.7 μm, C18, 100×2.1 column at a flow rate 0.3 mL/min. […] The mass spectrometry instrument was operated in a negative or positive (for JV-2946) ion mode with a voltage of +3.00 kV applied to the capillary. The temperature, the flow rate of the nitrogen drying gas, the pressure of the nitrogen nebulizing gas, the temperature, and the flow rate of the sheath gas were set at 325° C., 10 L/min, 40 psi, 390° C., and 11/min, respectively.
# rhGCPII = rhGCPII (Homo sapiens, UniProt Q04609); experiment: GCPII inhibition, radioenzymatic assay with 3H-NAAG; assay type: biochemical
# Sequence of rhGCPII (Q04609 whole entry): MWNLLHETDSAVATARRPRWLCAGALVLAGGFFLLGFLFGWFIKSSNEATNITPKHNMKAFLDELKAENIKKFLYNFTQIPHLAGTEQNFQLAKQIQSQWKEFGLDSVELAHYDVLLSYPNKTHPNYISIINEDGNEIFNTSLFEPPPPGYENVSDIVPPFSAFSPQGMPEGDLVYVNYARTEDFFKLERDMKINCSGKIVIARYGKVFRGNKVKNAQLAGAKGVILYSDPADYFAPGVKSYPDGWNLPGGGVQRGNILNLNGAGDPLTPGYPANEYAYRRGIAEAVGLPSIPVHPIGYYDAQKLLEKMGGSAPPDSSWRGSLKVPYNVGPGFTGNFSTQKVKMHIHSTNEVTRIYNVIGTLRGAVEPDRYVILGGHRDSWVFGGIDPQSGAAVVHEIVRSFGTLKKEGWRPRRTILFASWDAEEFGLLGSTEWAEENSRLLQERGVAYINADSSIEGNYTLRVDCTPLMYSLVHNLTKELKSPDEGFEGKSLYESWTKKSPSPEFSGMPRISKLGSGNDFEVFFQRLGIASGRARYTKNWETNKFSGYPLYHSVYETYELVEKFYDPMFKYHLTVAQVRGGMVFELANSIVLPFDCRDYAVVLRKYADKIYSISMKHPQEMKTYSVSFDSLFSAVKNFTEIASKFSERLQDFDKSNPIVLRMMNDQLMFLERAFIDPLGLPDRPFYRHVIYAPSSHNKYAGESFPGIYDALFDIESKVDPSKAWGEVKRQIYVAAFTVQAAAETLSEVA
# Procedure: Inhibition constants of prodrugs were determined using the radioenzymatic assay with 3HNAAG (radiolabeled at the terminal glutamate) as has been previously described (Novakova, et al., J. Med. Chem, 2016). Briefly, rhGCPII (30 ng/mL) was preincubated in the presence of inhibitors at varying concentrations, in 20 mM Tris, 150 mM NaCl, pH 8.0, for 15 min at 37° C. in the total volume of 80 μL. The reaction was initiated by the addition of 40 μL of the mixture of 0.31 μM NAAG (Sigma) and 15 nM 3H-NAAG (50 Ci/mmol in Tris buffer, PerkinElmer) to the total reaction volume of 120 μL. Following 20 min incubation, the reaction was terminated by addition of 120 μL of potassium phosphate (200 Mm), EDTA (50 Mm) and β-mercaptoethanol (2Mm), pH 7.4. The released glutamate was separated by ion-exchange chromatography and quantified by liquid scintillation counting. GraphPad Prism software (GraphPad Software, San Diego, CA, USA), was used for data fitting and IC50 values were calculated from the inhibition curves where applicable.
# [7] = Stability testing under GCPII enzyme assay conditions; assay type: physicochemical; conditions: 30 m in aqueous buffer; pH 8.0
# Procedure: Compound 1 and its six prodrugs 7, 12, 17, 23, 25, and 30 were tested for their inhibition potency against GCPII. […] Considering structural data on the compound 1/GCPII complex reported previously (Novakova, et al., J. Med. Chem, 2016) the lack of inhibitory potency of the prodrugs is likely due to the inability of the modified hydroxamate function to chelate active-site zinc ions.
# [8] = Oral plasma pharmacokinetic studies in mice; assay type: in vivo; conditions: mice (n=3), 10 mg/kg equivalent dose, plasma 30 min post dose
# Procedure: All pharmacokinetic studies in mice were conducted according to protocols approved by the Animal Care and Use Committee at Johns Hopkins University (Baltimore, MD). Briefly, male CD 1 mice between 25 g and 30 g were obtained from Harlan Laboratories (Indianapolis, Indiana), and maintained on a 12-hour light-dark cycle with ad libitum access to food and water.
# Compound 1 and its prodrugs were administered to male mice as a single (p.o.) dose of 10 mg/kg equivalent. Dosing solutions were prepared on the day of the experiment in 50 mM HEPES buffered saline and pH adjusted to 7.4. The mice were sacrificed by pentobarbital injection at 30 minutes post drug administration, and blood collected via cardiac puncture was placed into iced heparin-coated BD microtainers. Blood samples were spun at 2,000 g for 15 minutes, plasma was removed and stored at −80° C. until LC-MS analysis as previously described. (Novakova, et al., 2016) Briefly, chromatographic analysis was performed using an Accela™ ultra high-performance system consisting of an analytical pump, and an autosampler coupled with TSQ Vantage mass spectrometer (Thermo Fisher Scientific Inc., Waltham, MA). […]
# Bioanalysis of parent and intact prodrug in plasma and tissues: Prior to extraction, frozen samples were thawed on ice. […] The residue was reconstituted with 50 μL of 30% acetonitrile and analysed by LC/MS/MS. […]
SMILES,metabolic stability in mouse plasma [1],"antinociceptive effect on thermal hyperalgesia, ligated side [3]",plasma (systemic) levels of active compound 50 after subcutaneous dosing [4],sciatic nerve exposure of active compound 50 after subcutaneous dosing [4],metabolic stability in human plasma [5],other results
"CC(=O)ONC(=O)CCC(Cc1ccc(C(=O)O)cc1)C(=O)O (stereo not drawn) [Compound 7, 4-(5-(Acetoxyamino)-2-carboxy-5-oxopentyl)benzoic acid]",moderately stable,efficacious,high systemic levels,excellent nerve exposure,moderately stable,reversal of thermal hyperalgesia [2]: efficacious
"CC(=O)Oc1ccc(CONC(=O)CCC(Cc2ccc(C(=O)O)cc2)C(=O)O)cc1 (stereo not drawn) [Compound 12, 4-(5-(((4-Acetoxybenzyl)oxy)amino)-2-carboxy-5-oxopentyl)benzoic acid]",rapidly metabolized,analgesic efficacy comparable to dose of 10 mg/kg of 1; also recorded: significantly reduced thermal hyperalgesia; also recorded: analgesic efficacy superior to that of oral daily doses of 10 mg/kg of 1; also recorded: efficacious; also recorded: significantly attenuated CCI-induced hyperalgesic state,high systemic levels,excellent nerve exposure,rapidly metabolized,"response latency to thermal stimulus, sham-operated side ([3]; oral 4.6 mg/kg/day (equivalent of 3 mg/kg/day of 1)): no significant effect on absolute latency; also recorded: did not affect the response latency; first day with significantly reduced thermal hyperalgesia ([3]; oral, 3 mg/kg/day equivalent of 1): 4 days; stability / prodrug disappearance in mouse plasma [6]: lost the peak corresponding to 12"
"Cc1oc(=O)oc1CONC(=O)CCC(Cc1ccc(C(=O)O)cc1)C(=O)O (stereo not drawn) [Compound 17, 4-(2-Carboxy-5-(((5-methyl-2-oxo-1,3-dioxol-4-yl)methoxy)amino)-5-oxopentyl)benzoic acid]",,,,,,"fold less potent versus 1 in inhibiting GCPII activity (rhGCPII; compared to compound 1): 12 fold; IC50 (rhGCPII; rhGCPII, 3H-NAAG, pH 8.0, read-out: IC50, inhibition potency against GCPII): 540 nM; stability under GCPII enzyme assay conditions [7]: partial hydrolysis to 1"
"CC(=O)ONC(=O)CCC(Cc1cccc(C(=O)O)c1)C(=O)O (stereo not drawn) [Compound 34, 3-(5-(Acetoxyamino)-2-carboxy-5-oxopentyl)benzoic acid]",,,,,,release / plasma exposure of active compound 50 after oral dosing [8]: best release
